We go through nine compounds from ChEMBL document CHEMBL1201862, “PubChem BioAssay data set” (2004).

As usually defined, the EC50 is the concentration that produces a half-maximal response.

Assay [1] concerns the target Benomyl/methotrexate resistance protein (Candida albicans, UniProt P28873). Briefly: CaMdr1 efflux pump inhibitor potency, dose response, singleplex, Cherry Pick1 hits (AID 588608). Type of assay: functional.
The next assay concerns the target Protein Wnt-3a (Mus musculus, UniProt P27467). The assay is described as follows: Wnt3a-driven reporter signaling inhibition, dose response, selectivity assay for Gli-SUFU antagonist project, Wnt-LIGHT cells, luminescence (AID 651570).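 Further: Wnt-LIGHT reporter cells stimulated with conditioned medium from Wnt3a-producing cells.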 It is filed as functional. The conditions noted are these: read-out: IC50_Mean.
The target in assay [2] is T1, High affinity choline transporter 1 (Homo sapiens, UniProt Q9GZV3).
T1 sequence (Q9GZV3 whole entry): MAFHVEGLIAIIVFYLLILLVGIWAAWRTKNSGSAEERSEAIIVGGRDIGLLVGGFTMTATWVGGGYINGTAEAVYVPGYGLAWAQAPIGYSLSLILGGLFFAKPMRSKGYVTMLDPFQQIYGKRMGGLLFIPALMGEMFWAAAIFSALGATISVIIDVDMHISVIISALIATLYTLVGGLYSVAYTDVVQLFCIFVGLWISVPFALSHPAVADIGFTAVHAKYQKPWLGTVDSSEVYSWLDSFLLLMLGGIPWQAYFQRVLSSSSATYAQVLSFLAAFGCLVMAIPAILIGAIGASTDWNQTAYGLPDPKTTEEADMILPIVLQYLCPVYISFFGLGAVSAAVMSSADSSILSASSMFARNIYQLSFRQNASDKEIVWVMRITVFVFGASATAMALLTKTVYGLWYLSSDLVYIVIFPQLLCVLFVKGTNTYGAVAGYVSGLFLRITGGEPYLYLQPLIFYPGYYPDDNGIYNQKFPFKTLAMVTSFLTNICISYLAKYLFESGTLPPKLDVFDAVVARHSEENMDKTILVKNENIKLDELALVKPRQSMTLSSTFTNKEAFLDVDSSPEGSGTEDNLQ
The assay is described as follows: CHT inhibitors, dose response, cell-based, 10-point CRC, membrane potential dye (AID 588401).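 Further: membrane potential dye fluorescence of choline-evoked depolarization via CHT.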 It is filed as functional.

For assay [3], the target named is T1, High affinity choline transporter 1. Briefly: CHT inhibitors, dose response, cell-based, 5-point CRC, membrane potential dye (AID 504840). Type of assay: functional.
Assay [4] deals with T2, Sentrin-specific protease 8 (Homo sapiens, UniProt Q96LD8).
T2 sequence (Q96LD8 whole entry): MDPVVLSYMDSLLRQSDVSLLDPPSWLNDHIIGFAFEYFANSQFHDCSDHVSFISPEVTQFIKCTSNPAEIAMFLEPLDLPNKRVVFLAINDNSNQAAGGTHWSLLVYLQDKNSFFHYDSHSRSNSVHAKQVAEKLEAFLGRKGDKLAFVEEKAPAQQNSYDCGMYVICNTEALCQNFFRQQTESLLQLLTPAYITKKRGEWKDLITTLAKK
Type of assay: functional.

Assay [5] has as its target T3, Sentrin-specific protease 6 (Homo sapiens, UniProt Q9GZR1).
T3 sequence (Q9GZR1 whole entry): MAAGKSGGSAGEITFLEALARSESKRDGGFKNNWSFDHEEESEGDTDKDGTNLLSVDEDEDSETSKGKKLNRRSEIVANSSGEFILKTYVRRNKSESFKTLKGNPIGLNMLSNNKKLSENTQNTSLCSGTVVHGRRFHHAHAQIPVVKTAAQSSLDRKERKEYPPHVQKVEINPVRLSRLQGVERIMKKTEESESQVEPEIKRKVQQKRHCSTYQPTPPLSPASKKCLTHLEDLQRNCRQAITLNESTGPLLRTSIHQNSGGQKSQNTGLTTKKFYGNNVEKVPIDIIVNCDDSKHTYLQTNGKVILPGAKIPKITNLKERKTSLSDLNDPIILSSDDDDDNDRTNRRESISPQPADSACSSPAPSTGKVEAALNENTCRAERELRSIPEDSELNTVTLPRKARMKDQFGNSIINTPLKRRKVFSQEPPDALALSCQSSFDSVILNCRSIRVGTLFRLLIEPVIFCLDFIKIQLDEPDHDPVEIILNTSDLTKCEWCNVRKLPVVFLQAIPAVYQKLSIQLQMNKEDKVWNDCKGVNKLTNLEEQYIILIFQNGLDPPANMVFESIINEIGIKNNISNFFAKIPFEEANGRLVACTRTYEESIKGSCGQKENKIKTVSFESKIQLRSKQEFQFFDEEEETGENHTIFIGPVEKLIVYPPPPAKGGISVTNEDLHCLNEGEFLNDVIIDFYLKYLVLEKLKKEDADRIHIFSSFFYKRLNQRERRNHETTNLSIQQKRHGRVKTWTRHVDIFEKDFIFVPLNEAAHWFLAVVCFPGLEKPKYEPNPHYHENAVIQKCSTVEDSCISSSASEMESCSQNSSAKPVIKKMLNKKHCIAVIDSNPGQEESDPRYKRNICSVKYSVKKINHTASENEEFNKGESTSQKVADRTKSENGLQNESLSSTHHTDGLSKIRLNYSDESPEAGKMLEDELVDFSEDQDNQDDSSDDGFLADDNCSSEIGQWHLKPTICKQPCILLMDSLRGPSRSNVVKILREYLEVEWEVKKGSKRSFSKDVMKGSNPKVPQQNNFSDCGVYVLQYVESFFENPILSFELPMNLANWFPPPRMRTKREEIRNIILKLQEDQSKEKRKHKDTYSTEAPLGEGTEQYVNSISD
The assay is described as follows: SAR Analysis of small molecule inhibitors of Sentrin-specific protease 6 (SENP6) using a Luminescent assay. [Related pubchem assays (depositor defined):AID2582, AID2599]. It is filed as functional.

Another assay addresses T4, Caspase-3 (Homo sapiens, UniProt P42574).
T4 sequence (P42574 whole entry): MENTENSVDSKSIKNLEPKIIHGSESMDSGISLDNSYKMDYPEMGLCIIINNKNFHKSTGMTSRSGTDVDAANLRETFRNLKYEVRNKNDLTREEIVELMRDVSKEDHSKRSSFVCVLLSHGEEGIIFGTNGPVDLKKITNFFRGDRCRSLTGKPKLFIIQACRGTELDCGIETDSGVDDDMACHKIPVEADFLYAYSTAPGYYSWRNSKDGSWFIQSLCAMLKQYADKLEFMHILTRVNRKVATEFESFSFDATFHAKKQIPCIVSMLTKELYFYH
Briefly: SAR Analysis of small molecule inhibitors of Sentrin-specific proteases (SENPs) using a Caspase-3 Selectivity assay. [Related pubchem assays (depositor defined):AID2540, AID2599, AID434973, AID489001]. It is filed as functional.

In assay [6] the target is T5, Sentrin-specific protease 7 (Homo sapiens, UniProt Q9BQF6).
T5 sequence (Q9BQF6 whole entry): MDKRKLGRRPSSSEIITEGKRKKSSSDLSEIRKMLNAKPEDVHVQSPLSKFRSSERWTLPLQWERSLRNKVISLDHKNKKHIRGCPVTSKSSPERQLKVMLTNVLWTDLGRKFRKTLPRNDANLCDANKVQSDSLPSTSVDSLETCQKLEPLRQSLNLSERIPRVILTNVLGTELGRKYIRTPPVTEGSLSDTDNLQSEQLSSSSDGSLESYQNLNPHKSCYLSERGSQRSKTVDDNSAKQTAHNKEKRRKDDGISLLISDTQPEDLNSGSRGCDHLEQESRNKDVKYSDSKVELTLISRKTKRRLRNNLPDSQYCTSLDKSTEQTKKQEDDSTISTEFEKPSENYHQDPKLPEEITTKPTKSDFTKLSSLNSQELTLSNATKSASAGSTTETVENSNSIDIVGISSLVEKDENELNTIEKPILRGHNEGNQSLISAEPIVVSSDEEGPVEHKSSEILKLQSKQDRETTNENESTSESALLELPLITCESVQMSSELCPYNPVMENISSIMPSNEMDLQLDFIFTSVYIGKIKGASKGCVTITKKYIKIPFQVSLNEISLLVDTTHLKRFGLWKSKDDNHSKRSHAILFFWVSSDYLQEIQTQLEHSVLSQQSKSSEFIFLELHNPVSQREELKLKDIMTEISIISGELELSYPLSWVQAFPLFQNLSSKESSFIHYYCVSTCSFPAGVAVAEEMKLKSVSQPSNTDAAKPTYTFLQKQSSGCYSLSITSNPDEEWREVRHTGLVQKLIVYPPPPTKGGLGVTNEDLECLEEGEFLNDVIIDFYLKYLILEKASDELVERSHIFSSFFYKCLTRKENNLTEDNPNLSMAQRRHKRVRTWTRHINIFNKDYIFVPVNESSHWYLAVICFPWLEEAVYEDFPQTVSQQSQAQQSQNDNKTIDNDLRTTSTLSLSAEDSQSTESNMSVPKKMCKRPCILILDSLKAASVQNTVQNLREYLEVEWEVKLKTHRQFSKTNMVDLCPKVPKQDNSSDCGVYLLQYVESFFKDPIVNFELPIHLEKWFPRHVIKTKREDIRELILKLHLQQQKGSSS
The assay is described as follows: SENP7 protease inhibitors, SAR follow-up, biochemical, luminescence (AID 504497). Type of assay: functional.

The target in assay [7] is T2, Sentrin-specific protease 8. Briefly: SENP8 protease inhibitors, SAR follow-up, biochemical, luminescence (AID 504501). Type of assay: functional.
In assay [8] the target is T6, Zinc finger protein mex-5 (Caenorhabditis elegans, UniProt Q9XUB2).
T6 sequence (Q9XUB2 whole entry): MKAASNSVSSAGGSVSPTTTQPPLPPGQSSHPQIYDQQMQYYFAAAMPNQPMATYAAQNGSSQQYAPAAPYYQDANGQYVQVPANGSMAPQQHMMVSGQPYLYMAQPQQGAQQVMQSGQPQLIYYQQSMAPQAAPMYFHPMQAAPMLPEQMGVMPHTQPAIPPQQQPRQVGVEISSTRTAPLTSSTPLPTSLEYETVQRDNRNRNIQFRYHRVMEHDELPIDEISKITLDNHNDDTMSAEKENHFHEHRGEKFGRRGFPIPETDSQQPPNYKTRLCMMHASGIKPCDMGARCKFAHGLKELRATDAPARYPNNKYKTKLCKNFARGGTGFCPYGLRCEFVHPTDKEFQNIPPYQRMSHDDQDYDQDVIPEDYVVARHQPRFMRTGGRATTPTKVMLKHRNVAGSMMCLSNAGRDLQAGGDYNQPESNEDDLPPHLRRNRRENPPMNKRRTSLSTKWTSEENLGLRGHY
The assay is described as follows: MEX-5/TCR-2 RNA interaction inhibitors, dose response, biochemical, C. elegans, fluorescence polarization (AID 1960). On the technique in general: In fluorescence polarisation assays a small probe gives low polarisation when free and higher when bound to something large.

For assay [9], the target named is T7, RNA-binding protein pos-1 (Caenorhabditis elegans, UniProt G5EF15).
T7 sequence (G5EF15 whole entry): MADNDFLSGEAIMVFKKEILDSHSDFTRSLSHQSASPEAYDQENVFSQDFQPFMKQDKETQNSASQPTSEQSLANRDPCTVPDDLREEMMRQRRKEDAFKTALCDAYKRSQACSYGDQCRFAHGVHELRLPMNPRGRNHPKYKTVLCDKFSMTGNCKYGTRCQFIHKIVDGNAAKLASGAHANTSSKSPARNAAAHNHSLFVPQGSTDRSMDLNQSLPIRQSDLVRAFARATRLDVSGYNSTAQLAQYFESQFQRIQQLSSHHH
The assay is described as follows: inhibitors of POS-1/mex-3 RNA binding, dose response, biochemical, fluorescence polarization (AID 1964).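 Further: purified POS-1 fused to maltose binding protein made in E. coli; potency of compounds blocking POS-1 binding to fluorescent RNA.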

For assay [10], the target named is T8, Endoribonuclease toxin MazF (Escherichia coli K-12, UniProt P0AE70).
T8 sequence (P0AE70 whole entry): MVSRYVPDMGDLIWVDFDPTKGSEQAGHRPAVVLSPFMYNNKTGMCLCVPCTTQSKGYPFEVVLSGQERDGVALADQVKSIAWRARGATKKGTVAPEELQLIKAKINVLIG
Briefly: fluorescent RNA oligo signal without MazF, dose response, counter-screen for MazEF activator project, biochemical, fluorescence, single-stranded RNase substrate (AID 588502). Type of assay: functional. (In general: A counterscreen serves to expose hits that act by an unwanted route or on another target.)

The target of assay [11] is T8, Endoribonuclease toxin MazF. Briefly: MazF toxin RNase activators, dose response, biochemical, fluorescence, single-stranded RNA substrate, uHTS hits (AID 588481). It is filed as functional.
Assay [12] addresses Mitochondrial peptide methionine sulfoxide reductase (Bos taurus, UniProt P54149). Type of assay: functional.

Calls of active or inactive are those of the source. Bounds are passed on as bounds.

Chain of Mitochondrial peptide methionine sulfoxide reductase (P54149 whole entry): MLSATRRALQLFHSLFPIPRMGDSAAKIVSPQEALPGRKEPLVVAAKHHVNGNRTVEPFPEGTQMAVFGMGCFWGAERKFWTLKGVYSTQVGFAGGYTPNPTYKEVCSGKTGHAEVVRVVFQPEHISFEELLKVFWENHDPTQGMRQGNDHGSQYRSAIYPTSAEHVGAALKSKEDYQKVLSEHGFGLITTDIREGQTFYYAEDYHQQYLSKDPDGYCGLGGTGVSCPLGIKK
Chain of Benomyl/methotrexate resistance protein (P28873 whole entry): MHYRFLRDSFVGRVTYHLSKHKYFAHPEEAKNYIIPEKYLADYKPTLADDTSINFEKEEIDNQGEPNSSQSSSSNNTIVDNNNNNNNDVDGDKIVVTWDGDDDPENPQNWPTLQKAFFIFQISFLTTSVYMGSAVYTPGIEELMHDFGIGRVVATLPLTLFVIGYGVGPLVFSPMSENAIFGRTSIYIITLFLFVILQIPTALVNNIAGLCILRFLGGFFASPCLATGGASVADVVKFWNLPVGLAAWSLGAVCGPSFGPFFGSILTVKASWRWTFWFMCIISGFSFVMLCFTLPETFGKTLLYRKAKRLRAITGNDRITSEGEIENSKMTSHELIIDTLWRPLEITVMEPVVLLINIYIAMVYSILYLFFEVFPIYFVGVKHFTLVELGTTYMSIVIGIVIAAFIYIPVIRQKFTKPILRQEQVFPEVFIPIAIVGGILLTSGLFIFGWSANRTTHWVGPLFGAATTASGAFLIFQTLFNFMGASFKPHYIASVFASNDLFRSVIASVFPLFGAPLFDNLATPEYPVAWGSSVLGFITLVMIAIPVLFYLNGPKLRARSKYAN
Chain of Protein Wnt-3a (P27467 whole entry): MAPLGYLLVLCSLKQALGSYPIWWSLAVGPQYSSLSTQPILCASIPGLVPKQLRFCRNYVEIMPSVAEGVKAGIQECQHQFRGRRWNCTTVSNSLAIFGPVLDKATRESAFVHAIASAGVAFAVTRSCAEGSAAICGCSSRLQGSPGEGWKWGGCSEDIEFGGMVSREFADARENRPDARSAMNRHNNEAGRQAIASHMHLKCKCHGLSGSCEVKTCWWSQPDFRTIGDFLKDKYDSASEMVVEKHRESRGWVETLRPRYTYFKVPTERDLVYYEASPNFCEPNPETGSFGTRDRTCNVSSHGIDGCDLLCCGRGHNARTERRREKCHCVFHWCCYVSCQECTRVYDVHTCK

As to `O=C(COC(=O)c1c2ccccc2cc2ccccc12)Nc1ncc(C(F)(F)F)cc1Cl`, the EC50 in [1] was 23 µM (active).

Consider `NC(=O)CC(NC(=O)c1ccccc1)c1ccc(N2CCCCCC2)c([N+](=O)[O-])c1` (stereo unspecified), for which the IC50 is 19.9 µM (active) at Protein Wnt-3a, 6.21 µM (active) in [2] and 7.51 µM (active) in assay [3].

Take `CNc1cc(Cl)nc(SC)n1`: the IC50 is 2.67 µM (active) in assay [2] and 3.92 µM (active) in [3].

Take `O=[N+]([O-])c1c[cH-]c(N2CCN(Cc3ccccc3)CC2)c2[c+]1[n-]o[n+]2=O`: the IC50 in assay [4] is 17.3 µM (active).

On to `CCCc1ccc(OCc2ccc(C(=O)Nc3ccccc3F)cc2)cc1`, for which the IC50 was 43.7 µM (active) in [5], > 99 µM (inactive) on Caspase-3, 85.3 µM (active) in assay [6] and 70.3 µM (active) in assay [7].

As to `FC(F)(F)c1ccc(N/N=C/c2cn(Cc3ccccc3)c3ccccc23)cc1`, the IC50 (in assay [5]; at Caspase-3; in assay [6]; in [7]) was > 99 µM (inactive) each time.

With `O=[N+]([O-])c1cccc(/C=C/c2nc(/C=N/c3ccccc3)c(O)o2)c1`, the EC50 was 39.4 µM (active) in [8], > 300 µM (not active) in [9], 19.2 µM (active) in assay [10] and > 99 µM (inactive) in assay [11].

In the case of `C/C(=N\Nc1ccc([N+](=O)[O-])cc1[N+](=O)[O-])C(C)C(C)C` (stereo unspecified), the IC50 in [12] was 155 µM (inactive).

Regarding `CC(Nc1c([N+](=O)[O-])c(=O)oc2ccccc12)c1ccccc1` (stereo unspecified), the IC50 in assay [12] is 125 µM (inactive).
